For one assay, the system named is HIV-1 Strain IIIB. The assay can be described thus: Determination of IC-50 of antiviral drugs by reverse transcriptase assay in PHA-stimulated CBMC. Format: cell-based. The note with it: for RT Results (cpm) (Day 7): +drugs 7 days, replicate columns; for anti-HIV activity (inhibition of reverse-transcriptase activity of HIV-1) as compared to native C34: standard in vitro assay. How it is done:
Determination of IC-50 for Assessing the Activity of Antiviral Drugs Using HIV-1 Strain IIIB
The assay is performed in a 96-well plate with 500,000 PHA-stimulated CBMC (cord blood mononuclear cells) per well, 2 wells per drug concentration, with a minimum of 6 concentrations per drug. Media used is RPMI 1640 with 10% FBS, penicilin (100 U/ml), streptomycine (100 μg/ml), glutamine (2 mM), hydrocortisone (5 μg/ml), and IL-2 (20 U/ml).
Control drug stocks are prepared by adding 2 ml of buffer to the native compounds or the reactive compounds. The stocks are stored at −20 degrees Celsius. The drug concentrations were determined by ConjuChem Inc. [drawing 76] Addition of the Compound Prior to Cell Infection
Target cells are incubated with different compounds concentrations for 30-60 minutes at 37 degrees Celsius prior to addition of virus (multiplicity of infection (MOI)=0.1-1.0). Following plating, target cells are in the continuous presence of the different concentrations of inhibitor for a total of 7 days.
Following 3-4 days of incubation, each compound is replenished.
Reverse transcriptase assay is used to measure the IC50.
CC50 (cytotoxic concentration) is also evaluated for all compounds.
3TC is used as a control inhibitor

For assay [1], the target named is N36 peptide (CJC-1592) derived from the N-heptad repeat of HIV-1's gp41 glycoprotein (Human immunodeficiency virus type 1 group M subtype B, UniProt P04578). The note with it: 1 hour incubation at room temperature; 17.5% acrylamide; compared to native C34. How it is done:
Following the 1 hour incubation at room temperature, at least 20 micrograms of total N36/C34 peptide mixture were loaded into each well and separated using Native-polyacrylamide gel electrophoresis (17.5% acrylamide) and stained using Coomassie Brilliant Blue. Unlike SDS-PAGE, Native-PAGE allows one to visualize the formation of six-helix bundles at approximately 28 kDa composed of three central N36 peptides surrounded by three C34 peptides. The formation of this structure and its analogs among other viruses is critical to the subsequent membrane fusion events.

We go through 2 substances from patent US20080039532A1, “Compounds For Specific Viral Target” (priority 2004, published 2008).

Several values for one entry are separate records, joined by “and”; a condition that tells them apart may be missing. Identical values can stand only once. Ends that are not written are not given here. linker‑R1‑R2‑M = not defined here

On to “SEQ ID NO: 32: C34 with linker-R1-R2-M inserted at position Asp5 (Ac-WMEWK(linker‑R1‑R2‑M)REINNYTSLIHSLIEESQNQQERNEQELL; not fully specified; reading uncertain)”, for which the “RT Results (cpm) (Day 7)” value with HIV-1 Strain IIIB (Conc 125 nm) is 6322 cpm and 6929 cpm and 5909 cpm; with HIV-1 Strain IIIB (Conc 600 nm), 6477 cpm and 11889 cpm and 6030 cpm; in the assay on HIV-1 Strain IIIB (Conc 3000 nm), 7967 cpm and 5896 cpm and 6208 cpm. For the same substance, in the assay on HIV-1 Strain IIIB (inferred from anti-HIV activity, N-heptad repeat of HIV-1's gp41), the “efficiency of the binding element in binding to its viral target, compared to native C34” value is “as efficient in binding to its viral target as native C34”. Moreover, the “anti-HIV activity (inhibition of reverse-transcriptase activity of HIV-1) as compared to native C34” value in the assay on HIV-1 Strain IIIB is “as effectively as the native C34”. For the same substance, the “binding of C34 derivative to N36 peptide on Native-PAGE” value in assay [1] is recorded as “does not impede C34 from binding to its target N36 peptide”.

With “SEQ ID NO: 93: native (unreactive, non-covalent) version of C34 (Ac-WMEWDREINNYTSLIHSLIEESQNQQERNEQELL) [reference compound]”, the “RT Results (cpm) (Day 7)” value with HIV-1 Strain IIIB (Conc 125 nm) is 5854 cpm and 5040 cpm and 5219 cpm; in the assay with HIV-1 Strain IIIB (Conc 600 nm) it was 4924 cpm and 5850 cpm and 5093 cpm; in the assay with HIV-1 Strain IIIB (Conc 3000 nm), 5811 cpm and 6955 cpm and 5973 cpm. For the same substance, the “anti-HIV activity (inhibition of reverse-transcriptase activity of HIV-1) as compared to native C34” value in the assay with HIV-1 Strain IIIB was “essentially no loss in anti-HIV activity”.
